Key:
[1] = test system: creatine transporter (CrT) mRNA; assay: Real-Time PCR of creatine transporter mRNA in hypothalami of CoPP-treated rats; assay type: in vivo, rat; conditions: hypothalamus, 48 hours after icv, normalized to L32 mRNA, mean ± SEM
Experimental: RNA was purified with RNAase-free DNase (Promega) at 37 degrees C. for 30 min. The first strand of cDNA was synthesized by adding 1 ug of purified RNA from each sample to 20 ul containing MMLV reverse transcriptase (Invitrogen Life Tech). Creatine transporter (CrT) gene expression was further quantatified by Real-Time PCR using sense primer: 5′[…]′ (SEQ ID NO: 1); antisense primer: 5′[…]-3′ (SEQ ID NO:2) and TaqMan probe: 5′[…]-3′ (SEQ ID NO: 3) (MMG-Biotech). The rat ribosomal protein L32 gene was used as a loading control. Each cDNA sample (1 ul) derived from the 20 ul reverse transcription reaction and 1 ul RNA template was mixed with 24 ul master mixture (Perkin Elmer) in a 96-well TaqMan plate. The PCR was run in an ABI prism 7700 thermocycler (Applied Biosystems) at 50 degrees C. for 2 min and 95 degrees C. for 10 min; this was followed by 95 degrees C. for 15 sec and 60 degrees C. for 1 min for 40 cycles. The data were analyzed using software supplied with the ABI prism 7700.

[2] = test system: creatine transporter (CrT) protein; assay: Creatine transporter immunoreactivity in rat brain; assay type: in vivo; conditions: 4 hours after icv 0.4 um/kg; dorsomedial, supramamillary nucleus, III ventricle, habenular (p<0.05), paraventricular thalamic areas; FIG. 7
Experimental: In experiments involving immunohistochemistry, animals were injected icv with CoPP 0.4 umol/kg body weight or with vehicle. Four hours after injection, animals were anesthetized with halothane and perfused through the left ventricle of the heart, initially with oxygenated Krebs buffer and then with ˜350 ml of 4% paraformaldehyde in 0.1M NaCl, pH 7.4 phosphate buffered saline (PBS). Brains were extracted from the skull, hypothalamic blocks dissected (by coronal cuts anterior and posterior to hypothalamic landmarks) and post-fixed in 4% paraformaldehyde solution at 4 degrees C. overnight. The following day, the blocks were transferred to 30% sucrose and incubated overnight at 4 degrees C. […] They were allowed to dry, rewetted with PBS buffer and cover-slipped with Citifluor (Ted Pella, Reading, Calif.). Creatine transporter (CrT) and Fos studies were performed using indirect fluorescence visualization with rabbit anti-CrT (1:40; Alpha Diagnostics, San Antonio, Tex.) with goat anti-rabbit Cy3 (Jackson Immuno Research Laboratories, Inc., West Grove, Pa.) and rabbit c-Fos-AB5 (1:2,000; Oncogene Research Products, Cambridge, Mass.) with goat anti-rabbit Cy3 (1:500; Jackson Immuno Research Laboratories, Inc.) as the secondary antibody. […] Areas of interest were quantitated on each section in which they appeared and averaged to yield means+SEM of percentages. […]

Fos (c-fos protein) = assay: Fos immunohistochemistry of hypothalamic sections 4 hours after icv injection; assay type: in vivo, rat; conditions: 4 hours after icv injection, percent of area stained
Experimental: In experiments involving immunohistochemistry, animals were injected icv with beta-GPA or with vehicle. Four hours after injection, animals were anesthetized with halothane and perfused through the left ventricle of the heart, initially with oxygenated Krebs buffer and then with ˜350 ml of 4% paraformaldehyde in 0.1M NaCl, pH 7.4 phosphate buffered saline (PBS). Brains were extracted from the skull, hypothalamic blocks dissected (by coronal cuts anterior and posterior to hypothalamic landmarks) and post-fixed in 4% paraformaldehyde solution at 4 degrees C. overnight. The following day, the blocks were transferred to 30% sucrose and incubated overnight at 4 degrees C. After freezing in Optimum Cutting Temperature (OCT) compound (Sakura, Japan), blocks were sectioned coronally at 40 um on a cryostat and sections individually floated in multi-well dishes filled with PBS. Sections were treated for 30 minutes with 0.4% Triton detergent in potassium PBS to aid in antibody penetration. Primary antibodies were added, the plates shaken gently for 1 hour at room temperature, then incubated at 4 degrees C. for 72 hours. Sections were then brought to room temperature while shaking and the primary antibody solution was removed by washing 3 times with PBS buffer. After removal of the last wash, the secondary antibody solution was added and the plates incubated for 2 hours at room temperature in the dark. Removal of the second antibody was achieved by washing three times with PBS buffer prior to mounting on subbed slides. They were allowed to dry, rewetted with PBS buffer and cover-slipped with Citifluor (Ted Pella, Reading, Calif.).
Fos studies were performed using indirect fluorescence visualization. The method utilized rabbit c-Fos-AB5 (1:2,000; Oncogene Research Products, Cambridge, Mass.) with goat anti-rabbit Cy3 (1:500; Jackson Immuno Research Laboratories, West Grove, Pa.) as the secondary antibody. […] Staining observed in experimental tissue was compared to that observed from experiment-matched negative controls. […] Immunoreactive Fos (Fos IR) was quantified by capturing images at 10× using MagnaFire 2.0 Software. These images were imported into the Metamorph 6.1 Software package and density of staining measured using Hue Saturation Intensity. Regions outlining nuclei were hand drawn with an electric pen and the total areas and stained areas measured to yield percentages of total areas with specific Fos-IR. The values for left and right dorsomedial nuclei in each rat were averaged, and the averages used to calculate means. In the case of the III ventricle, the entire image was used for quantification prior to calculating the percentage of the area with Fos-IR.

C=Cc1c(C)c2cc3[nH]c(cc4nc(cc5nc(cc1[nH]2)C(C)=C5CCC(=O)[O-])C(CCC(=O)[O-])=C4C)c(C)c3C=C.[Co+2] [CoPP, Cobaltic protoporphyrin IX]
Real-Time PCR [1]: 0.97 ± 0.050 arbitrary units | immunoreactive (IR) CrT compared to controls and fasted controls [2]: increased | Fos IR in the dorsomedial nucleus (Fos (c-fos protein)): 6.86 ± 5.85% | Fos IR in the paraventricular nucleus (Fos (c-fos protein)): 4.44 ± 2.22% | Fos IR in the midsection of the ventral III ventricle (Fos (c-fos protein); p<0.025): 48.3 ± 11.18%
